Experimental data reported in ChEMBL document CHEMBL1909046, “DrugMatrix in vitro pharmacology data”.

How the values were obtained:
[1] = DRUGMATRIX: GABAA, Muscimol, Central radioligand binding (ligand: [3H] Muscimol); assay type: cell membranes, Rattus norvegicus, Wistar, Brain, Membrane; conditions: Not Active = under 50% inhibition at 10 µM
[2] = target: Delta-type opioid receptor (Homo sapiens, UniProt P41143); assay type: cell membranes, Membrane; conditions: hek293; further: in other assays of this panel Not Active means under 50% inhibition at 10 µM
Chain of Delta-type opioid receptor (P41143 whole entry): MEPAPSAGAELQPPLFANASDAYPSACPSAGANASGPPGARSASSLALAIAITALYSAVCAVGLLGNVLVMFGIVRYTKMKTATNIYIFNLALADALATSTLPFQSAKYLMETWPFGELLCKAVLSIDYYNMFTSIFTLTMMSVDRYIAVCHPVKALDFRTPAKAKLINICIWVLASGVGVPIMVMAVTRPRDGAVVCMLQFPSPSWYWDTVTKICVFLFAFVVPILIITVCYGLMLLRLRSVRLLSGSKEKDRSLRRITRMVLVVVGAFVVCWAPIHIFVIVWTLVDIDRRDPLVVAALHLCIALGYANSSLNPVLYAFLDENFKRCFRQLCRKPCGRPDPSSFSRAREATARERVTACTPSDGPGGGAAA

[3] = target: Platelet-activating factor receptor (Homo sapiens, UniProt P25105); assay type: tissue-based; further: in other assays of this panel Not Active means under 50% inhibition at 10 µM
Chain of Platelet-activating factor receptor (P25105 whole entry): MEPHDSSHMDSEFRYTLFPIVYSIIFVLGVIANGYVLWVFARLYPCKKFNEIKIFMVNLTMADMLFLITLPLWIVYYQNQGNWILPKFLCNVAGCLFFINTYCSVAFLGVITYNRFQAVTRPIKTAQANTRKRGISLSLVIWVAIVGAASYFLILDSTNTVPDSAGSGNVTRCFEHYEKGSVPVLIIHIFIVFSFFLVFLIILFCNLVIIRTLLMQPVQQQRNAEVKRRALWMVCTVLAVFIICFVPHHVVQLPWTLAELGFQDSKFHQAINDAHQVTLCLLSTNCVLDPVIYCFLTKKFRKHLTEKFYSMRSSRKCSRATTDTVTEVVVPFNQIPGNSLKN

[4] = DRUGMATRIX: Glutamate, NMDA, Phencyclidine radioligand binding (ligand: [3H] TCP); assay type: cell membranes, Rattus norvegicus, Wistar, Cerebral cortex, Membrane; conditions: Not Active = under 50% inhibition at 10 µM
[5] = target: Tyrosine-protein kinase Lck (Homo sapiens, UniProt P06239); assay: DRUGMATRIX: Protein Tyrosine Kinase, LCK enzyme inhibition (substrate: Poly(Glu:Tyr)); assay type: cell-based, Insect cells; conditions: insect cells; Not Active = under 50% inhibition at 10 µM
Chain of Tyrosine-protein kinase Lck (P06239 whole entry): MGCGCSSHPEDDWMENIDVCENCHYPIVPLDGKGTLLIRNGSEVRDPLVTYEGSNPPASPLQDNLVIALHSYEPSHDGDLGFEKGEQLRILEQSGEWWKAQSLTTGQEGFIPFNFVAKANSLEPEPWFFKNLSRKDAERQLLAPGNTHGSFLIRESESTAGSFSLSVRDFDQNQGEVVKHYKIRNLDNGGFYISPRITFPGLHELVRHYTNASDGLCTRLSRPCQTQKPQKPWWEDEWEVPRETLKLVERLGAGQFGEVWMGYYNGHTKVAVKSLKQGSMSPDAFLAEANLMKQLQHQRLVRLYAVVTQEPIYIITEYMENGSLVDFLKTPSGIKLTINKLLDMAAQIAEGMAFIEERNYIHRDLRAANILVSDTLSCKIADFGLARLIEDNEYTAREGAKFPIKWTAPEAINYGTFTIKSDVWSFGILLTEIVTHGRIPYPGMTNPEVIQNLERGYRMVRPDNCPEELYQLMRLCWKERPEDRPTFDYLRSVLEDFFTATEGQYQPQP

[6] = target: T1, Cysteinyl leukotriene receptor 1 (Homo sapiens, UniProt Q9Y271); assay type: cell membranes, Membrane; conditions: cho-k1; further: in other assays of this panel Not Active means under 50% inhibition at 10 µM
T1 sequence (Q9Y271 whole entry): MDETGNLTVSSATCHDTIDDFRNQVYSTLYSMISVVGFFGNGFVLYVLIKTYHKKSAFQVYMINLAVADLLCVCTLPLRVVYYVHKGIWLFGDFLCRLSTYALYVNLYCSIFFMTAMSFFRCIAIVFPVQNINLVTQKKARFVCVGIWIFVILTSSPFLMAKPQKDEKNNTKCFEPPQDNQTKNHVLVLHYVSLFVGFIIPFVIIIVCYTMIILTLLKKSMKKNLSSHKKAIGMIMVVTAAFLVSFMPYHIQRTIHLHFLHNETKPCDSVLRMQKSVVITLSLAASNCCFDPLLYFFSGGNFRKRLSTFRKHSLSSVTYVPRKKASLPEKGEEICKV

D(1A) dopamine receptor = D(1A) dopamine receptor (Homo sapiens, UniProt P21728); assay: DRUGMATRIX: Dopamine D1 radioligand binding (ligand: [3H] SCH-23390); assay type: cell membranes, CHO, Membrane; conditions: cho; Not Active = under 50% inhibition at 10 µM
Chain of D(1A) dopamine receptor (P21728 whole entry): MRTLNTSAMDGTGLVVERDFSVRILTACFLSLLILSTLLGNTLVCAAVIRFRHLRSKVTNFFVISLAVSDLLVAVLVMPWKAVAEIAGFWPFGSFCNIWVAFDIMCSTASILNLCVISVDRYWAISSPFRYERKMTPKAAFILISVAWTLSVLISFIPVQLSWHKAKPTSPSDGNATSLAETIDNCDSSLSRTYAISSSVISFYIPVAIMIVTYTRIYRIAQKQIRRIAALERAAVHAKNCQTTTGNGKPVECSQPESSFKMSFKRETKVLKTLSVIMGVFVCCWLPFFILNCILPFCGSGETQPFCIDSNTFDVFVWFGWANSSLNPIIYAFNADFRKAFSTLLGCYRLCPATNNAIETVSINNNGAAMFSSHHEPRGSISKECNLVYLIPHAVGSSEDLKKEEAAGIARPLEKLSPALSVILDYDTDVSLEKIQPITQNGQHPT

COc1cc2nc(N3CCN(C(=O)C4CCCO4)CC3)nc(N)c2cc1OC (centres undefined) [TERAZOSIN]
Not Active: IC50 [1] | Ki [1] | IC50 [2] | IC50 [3] | IC50 [4] | Ki [4] | IC50 [5] | IC50 [6] | IC50 (D(1A) dopamine receptor)

CC(c1cc2ccccc2s1)N(O)C(N)=O (centres undefined) [ZILEUTON]
Not Active: IC50 [1] | Ki [1] | IC50 [2] | IC50 [3] | IC50 [4] | Ki [4] | IC50 [5] | IC50 [6] | IC50 (D(1A) dopamine receptor)

O=C1C(CC[S+]([O-])c2ccccc2)C(=O)N(c2ccccc2)N1c1ccccc1 (centres undefined) [SULFINPYRAZONE]
Not Active: IC50 [1] | Ki [1] | IC50 [2] | IC50 [3] | IC50 [4] | Ki [4] | IC50 [5] | IC50 [6] | IC50 (D(1A) dopamine receptor)

CCN1CCC[C@H]1CNC(=O)c1cc(S(N)(=O)=O)ccc1OC [LEVOSULPIRIDE]
Not Active: IC50 [1] | Ki [1] | IC50 [2] | IC50 [3] | IC50 [4] | Ki [4] | IC50 [5] | IC50 [6] | IC50 (D(1A) dopamine receptor)

CCN(CC)CCNC(=O)c1cc(S(C)(=O)=O)ccc1OC [TIAPRIDE]
Not Active: IC50 [1] | Ki [1] | IC50 [2] | IC50 [3] | IC50 [4] | Ki [4] | IC50 [5] | IC50 [6] | IC50 (D(1A) dopamine receptor)

CCCCOc1cc(CC2CNC(=O)N2)ccc1OC (centres undefined) [RO-201724]
Not Active: IC50 [1] | Ki [1] | IC50 [2] | IC50 [3] | IC50 [4] | Ki [4] | IC50 [5] | IC50 [6] | IC50 (D(1A) dopamine receptor)
